Results published in patent US9078899B2, “Pyrazolyl-based carboxamides II” (Grünenthal GmbH, priority 2013, dated 2015).

Key:
[1] = test system: Interleukin-2 (IL-2) production/release; test: Jurkat IL-2 Production Assay; type: cell-based; details: Homo sapiens; Jurkat T cells clone E6-1, 15 μg/ml PHA for 22 hours, IL-2 in supernatant
Description: Jurkat IL-2 Production Assay
The effect of compounds of the invention on Interleukin-2 (IL-2) production/release was tested in the Jurkat T cell line (ECACC) clone E6-1.
Jurkat T cells were cultured in DMEM/F12/Glutamax (Gibco) containing 10% FCS (Gibco), and maintained at 37° C., 5% CO2. Cell were split twice a week [5*10^6 (Mon-Thu) and 1*10^7 (Thu-Mon) cells/50 ml medium in T-175 ZK culture flasks, respectively].
Prior to experiment, cells were seeded on 96 well plates (Cellstar 96 Well; Cat No. 655180, Greiner bio-one) at a density of 5*10^5 cells/well in DMEM/F12/Glutamax (Gibco) containing 10% FCS (Gibco), and incubated for 60 min at 37° C., 5% CO2. Subsequently, compounds were added and cells were allowed to incubate for 30 min at 37° C., 5% CO2. Cells were then stimulated with 15 μg/ml Phytohemagglutinin (PHA; Sigma) for 22 hours at 37° C., 5% CO2.
Before sampling of the supernatants, cells were spun down (200*g/5 min/RT). The amount of IL-2 released into the supernatant was quantified with the human IL-2 AlphaLisa kit (Perkin Elmer) according to manufacturer's instructions. Luminescence proximity measurements were carried out in the Synergy H4 reader (BioTek) employing the fluorescence setting of the reader (ex: 680/30 nm; em: 620/40 nm).
Inhibition of IL-Production/Release in/from Jurkat T Cells was Quantified as Follows:
Zero percent inhibition (MAX) was defined as the [IL-2] determined in supernatants derived from cells to which PHA & DMSO-only had been added instead of compound. Hundred percent inhibition (MIN) was defined as the [IL-2] determined in supernatants derived from cells that had been pre-treated with 1 μM CyclosporineA (Sigma) before the addition of 15 μg/ml PHA.
For routine IC50 determinations of compounds, 8 concentrations of a serial dilution (1:3.16) were tested, starting off from 10 μM.

CRAC channel = target: T1, CRAC channel (Homo sapiens, UniProt Q96D31); test: HEK Calcium Influx Assay (FLIPR); type: cell-based; details: 10 μM; endogenous SOC in HEK293 cells, thapsigargin store depletion, Ca2+ signal 9.5-10 min post-administration; read-out: % inhib.[@ 10 μM] FLIPR
T1 construct: host or cells: HEK293
T1 sequence (Q96D31 whole entry): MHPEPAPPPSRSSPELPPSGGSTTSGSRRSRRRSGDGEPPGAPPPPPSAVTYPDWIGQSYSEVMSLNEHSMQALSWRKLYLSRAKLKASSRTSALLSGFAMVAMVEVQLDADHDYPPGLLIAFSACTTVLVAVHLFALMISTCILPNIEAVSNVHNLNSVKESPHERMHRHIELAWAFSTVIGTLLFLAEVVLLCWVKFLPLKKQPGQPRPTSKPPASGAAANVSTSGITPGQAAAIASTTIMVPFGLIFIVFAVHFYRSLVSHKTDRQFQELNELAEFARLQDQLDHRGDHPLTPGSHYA

SMILES: COc1ccc(OC)c(-c2cc(C(=O)Nc3ccccc3C)nn2C)c1 [Example 27, 5-(2,5-Dimethoxyphenyl)-1-methyl-N-(o-tolyl)-1H-pyrazole-3-carboxylic acid amide]
- IC50 [1]: 1 to 5 µM
- inhibition at 10 µM (CRAC channel): > 70%

SMILES: COc1ccc(OC)c(-c2c(C)c(C(=O)Nc3ccncc3F)nn2C)c1 [Example 25, 5-(2,5-Dimethoxyphenyl)-N-(3-fluoro-pyridin-4-yl)-1,4-dimethyl-1H-pyrazole-3-carboxylic acid amide]
- IC50 [1]: 0.5 to 1 µM
- inhibition at 10 µM (CRAC channel): > 70%

SMILES: COc1ccc(OC)c(-c2cc(C(=O)Nc3ccc(F)cc3F)nn2C)c1 [Example 2, N-(2,4-Difluoro-phenyl)-5-(2,5-dimethoxyphenyl)-1-methyl-1H-pyrazole-3-carboxylic acid amide]
- IC50 [1]: 1 to 5 µM
- inhibition at 10 µM (CRAC channel): > 70%

SMILES: COc1ccc(OC)c(-c2cc(C(=O)Nc3ncncc3C)nn2C)c1 [Example 18, 5-(2,5-Dimethoxyphenyl)-1-methyl-N-(5-methyl-pyrimidin-4-yl)-1H-pyrazole-3-carboxylic acid amide]
- IC50 [1]: 1 to 5 µM
- inhibition at 10 µM (CRAC channel): < 50%

SMILES: Cc1ccc(C(F)(F)F)cc1-c1cc(C(=O)Nc2c(F)cccc2F)nn1C [Example 30, N-(2,6-Difluoro-phenyl)-1-methyl-5-[2-methyl-5-(trifluoromethyl)-phenyl]-1H-pyrazole-3-carboxylic acid amide]
- IC50 [1]: 0.5 to 1 µM
- inhibition at 10 µM (CRAC channel): > 70%

SMILES: CCOc1ccc(OC)cc1-c1cc(C(=O)Nc2ccncc2F)nn1C [Example 3, 5-(2-Ethoxy-5-methoxy-phenyl)-N-(3-fluoro-pyridin-4-yl)-1-methyl-1H-pyrazole-3-carboxylic acid amide]
- IC50 [1]: 1 to 5 µM
- inhibition at 10 µM (CRAC channel): < 50%

SMILES: COc1ccc(OC(F)(F)F)c(-c2cc(C(=O)Nc3ccncc3F)nn2C)c1 [Example 9, N-(3-Fluoro-pyridin-4-yl)-5-[5-methoxy-2-(trifluoromethyloxy)-phenyl]-1-methyl-1H-pyrazole-3-carboxylic acid amide]
- IC50 [1]: 1 to 5 µM
- inhibition at 10 µM (CRAC channel): > 70%

SMILES: Cn1nc(C(=O)Nc2c(F)cncc2F)cc1-c1cc(OC(F)(F)F)ccc1C1CC1 [Example 46, 5-[2-Cyclopropyl-5-(trifluoromethyloxy)-phenyl]-N-(3,5-difluoro-pyridin-4-yl)-1-methyl-1H-pyrazole-3-carboxylic acid amide]
- IC50 [1]: < 0.5 µM
- inhibition at 10 µM (CRAC channel): > 70%

SMILES: COc1ccc(OC)c(-c2cc(C(=O)Nc3c(F)cncc3F)nn2C)c1 [Example 34, N-(3,5-Difluoro-pyridin-4-yl)-5-(2,5-dimethoxyphenyl)-1-methyl-1H-pyrazole-3-carboxylic acid amide]
- IC50 [1]: < 0.5 µM
- inhibition at 10 µM (CRAC channel): > 70%

SMILES: CCc1c(C(=O)Nc2c(F)cccc2F)nn(C)c1-c1cc(OC)ccc1OC [Example 42, N-(2,6-Difluoro-phenyl)-5-(2,5-dimethoxyphenyl)-4-ethyl-1-methyl-1H-pyrazole-3-carboxylic acid amide]
- IC50 [1]: 1 to 5 µM
- inhibition at 10 µM (CRAC channel): 50 to 70%

SMILES: Cn1nc(C(=O)Nc2c(F)cccc2F)cc1-c1c(F)cccc1C(F)(F)F [Example 51, N-(2,6-Difluoro-phenyl)-5-[2-fluoro-6-(trifluoromethyl)-phenyl]-1-methyl-1H-pyrazole-3-carboxylic acid amide]
- IC50 [1]: 1 to 5 µM
- inhibition at 10 µM (CRAC channel): 50 to 70%

SMILES: Cn1nc(C(=O)Nc2c(F)cccc2F)cc1-c1cc(OC(F)(F)F)ccc1C1CC1 [Example 45, 5-[2-Cyclopropyl-5-(trifluoromethyloxy)-phenyl]-N-(2,6-difluoro-phenyl)-1-methyl-1H-pyrazole-3-carboxylic acid amide]
- IC50 [1]: 0.5 to 1 µM
- inhibition at 10 µM (CRAC channel): > 70%

SMILES: COc1ccc(OC)c(-c2c(Cl)c(C(=O)Nc3c(F)cccc3F)nn2C)c1 [Example 39, 4-Chloro-N-(2,6-difluoro-phenyl)-5-(2,5-dimethoxyphenyl)-1-methyl-1H-pyrazole-3-carboxylic acid amide]
- IC50 [1]: < 0.5 µM
- inhibition at 10 µM (CRAC channel): > 70%

SMILES: Cn1nc(C(=O)Nc2c(F)cccc2F)cc1-c1cc(C(F)(F)F)ccc1Cl [Example 36, 5-[2-Chloro-5-(trifluoromethyl)-phenyl]-N-(2,6-difluoro-phenyl)-1-methyl-1H-pyrazole-3-carboxylic acid amide]
- IC50 [1]: < 0.5 µM
- inhibition at 10 µM (CRAC channel): > 70%

SMILES: Cc1ccc(Cl)cc1-c1cc(C(=O)Nc2c(F)cccc2F)nn1C [Example 26, 5-(5-Chloro-2-methyl-phenyl)-N-(2,6-difluoro-phenyl)-1-methyl-1H-pyrazole-3-carboxylic acid amide]
- IC50 [1]: 1 to 5 µM
- inhibition at 10 µM (CRAC channel): > 70%

SMILES: COc1ccc(OC)c(-c2c(N)c(C(=O)Nc3c(F)cccc3F)nn2C)c1 [Example 44, 4-Amino-N-(2,6-difluoro-phenyl)-5-(2,5-dimethoxyphenyl)-1-methyl-1H-pyrazole-3-carboxylic acid amide]
- IC50 [1]: 1 to 5 µM
- inhibition at 10 µM (CRAC channel): 50 to 70%
